The values that follow come from PMC9489722, “Identification and development of a subtype-selective allosteric AKT inhibitor suitable for clinical development” (Scientific Reports, 2022).

Each structure is given as a SMILES string. Read-outs that look alike come from different tables or passages of the source. Where only a bound is given, the exact number is not on record here.

The target of one data set is CYP 2C9 (Homo sapiens, UniProt P11712). In words: CYP2C9 inhibition. It is filed as in vitro ADME.
Data set [1] concerns pGSK3β in PC3 prostate cancer cells. In words: pGSK3β ELISA in PC3 cells. It is filed as cell-based. To be noted: for IC50: Homo sapiens, PC-3, PC3 cells, 24 h. The procedure:
(§1) Cells were then washed with PBS and lysed. The subsequent supernatant was assayed using a GSK3β (pS9) (Invitrogen, Life Technologies) ELISA. Phospho-AKT levels were detected using the phospho-AKT (S473) immunoassay (R&D Systems) as per manufacturer’s protocol. Percentage inhibition of phosphorylation status was calculated by comparing phospho-AKT levels to total AKT levels with each treatment and IC50 values derived using non-linear regression on GraphPad Prism.
(ELISA stands for enzyme-linked immunosorbent assay.)

Data set [2] in a line: Pharmacokinetic study in Sprague–Dawley rats. It is filed as in vivo, rat. To be noted: male SD rats. The procedure:
Eight rats were purchased and 6 used on the PK study (3 per administration route). The remaining rats were purchased in case of mis-dosing events and were used to obtain blank biological matrix. Compounds were administered as single i.v. doses at 1 mg free base/kg or single oral doses at 5 mg free base/kg, with blood samples obtained from three rats per dose route, at 9 time-points out to 24 h post-dose. Both the intravenous and oral doses were prepared at a concentration of 1 mg free base/mL in a mixture of 5% DMSO/95% saline. Blood samples were centrifuged to give plasma. Plasma proteins were precipitated, and compounds extracted by addition of six volumes of acetonitrile containing warfarin as internal standard. Samples were centrifuged at 4000 rpm for 30 min and the supernatants were analysed on a Waters Xevo TQ mass spectrometer. Multiple Reaction Monitoring (MRM) methods were developed for each test compound using Waters IntelliStart software.
Quantification of test compounds was by extrapolation from calibration lines prepared in control rat plasma and analysed concurrently with experimental samples.
Non-compartmental analysis was performed using the software package PK Solutions 2.0 from Summit Research Services to produce the PK parameters. AUC values were calculated by the trapezoidal method.
Oral bioavailability was estimated by comparison of the drug concentration/time AUCs for individual animals after oral dosing with the mean AUC from i.v. doses.

Data set [3] has as its system pAKT^S473 in A549 tumours. In words: PK/PD study in A549 lung cancer xenograft model. It is filed as in vivo, mouse. To be noted: single oral dose 100 mg/kg, 24-h time period, A549 xenograft. The procedure:
In order to understand the relationship between ALM301 plasma exposure and in vivo AKT target engagement over time, a PK/PD study was carried out in a A549 lung cancer xenograft model. […] ALM301 plasma concentrations and levels of pAKT^S473 in tumours were measured using western blotting and immunohistochemistry (Fig. 4A, B and Supplementary Fig. S4A–C). […] Tumour sections were collected following one dose of either vehicle or 30 mg/kg of ALM301 at noted time intervals (1 h, 2 h, 4 h, 8 h, 24 h). Tissue sections were subsequently stained with pAKT antibody (brown) staining and scored for pAKT staining using a scale of 1–4 (low to high) (Fig. 4B).
For pharmacokinetic/pharmacodynamic (PK/PD) studies in A549 lung cancer xenografts, 150 male BALB/c nude mice aged 6–8 weeks and weighing approximately 18–22 g were inoculated with 1 × 10^7 A549 tumour cells (ATCC) in 0.1 mL of PBS with Matrigel (1:1) subcutaneously into the right flank. Once the mean tumour size reached 150–250 mm^3, the mice were randomised into treatment groups (18 mice per group) using a randomised block design (first, experimental animals are divided into homogeneous blocks according to their initial tumour volume; secondly, within each block, randomisation of animals to treatment groups was conducted so that each animal had the same probability of being assigned to a given treatment, thereby reducing systematic bias). Group sizes were devised based on previous pilot studies using a minimal numbers approach of n = 3 tumours per time-point (6 time-points per dose level). […] Tumour size was measured twice weekly in two dimensions using a caliper, and the volume expressed in mm^3 using the formula: V = 0.5 (a × b^2), where a and b are the long and short diameters of the tumour, respectively.

A further data set is described as follows: Kinetic solubility assay. It is filed as physicochemical. Particulars: PBS pH 7.4, read-out: Kinetic solubility pH7.4. The procedure:
Compound solubility was tested in Dulbecco A PBS buffer at pH7.4 in Millipore MultiScreen Solubility Filter plates. Analysis was carried out on a Bioteck Synergy 4 plate reader (240–400 nm) and solubility quantified against a 5-point calibration curve.

The next data set can be described thus: LogD7.4 assay. It is filed as physicochemical. Particulars: octanol/PBS buffer; octanol/PBS pH 7.4. The procedure:
Compounds (100 µM) were shaken at 300 rpm at room temperature for 4 h in a biphasic system of octanol and PBS buffer pH 7.4 in a 96-well plate in triplicate. The relative drug concentration in each phase was then determined by the peak area measurement from LC-UV analysis on an Agilent 1260 chromatography instrument (UV detection at 254 nm and 220 nm). LogD is calculated as follows: LogD = Log[peak area of compound in octanol x injection volume of buffer phase/peak area of compound in buffer x injection volume of octanol phase].

Data set [4] is described as follows: In vitro microsomal stability, rat. Type of data set: in vitro ADME. Particulars: pH 7.4; rat liver microsomes; read-out: rat LM CLint. The procedure:
(§2) Compounds (final concentration = 1 µM; final DMSO concentration = 0.1%) were incubated in 0.1 M phosphate buffer at pH 7.4 with liver microsomes (human, mouse, rat or dog; 0.5 mg of protein/mL) at 37 °C. Reactions were started by addition of NADPH in 0.1 M phosphate buffer pH 7.4 (final concentration 1 mM). Reactions were quenched by addition of ice-cold methanol and frozen. The supernatants were analysed by LC/MS/MS on a Waters Acquity I-Class coupled to a Waters Xevo TQD mass spectrometer. A Waters BEH C18 2.1 × 50 mm 1.7 µm column was used and mobile phases consisted of water and methanol containing 0.1% formic acid as modifier. Analysis was by multiple reaction monitoring and conditions were optimised for each test compound.
For orientation: Liver microsomes are vesicles of endoplasmic reticulum, rich in cytochrome P450 enzymes.

The subject of data set [5] is pAKT (Ser473) in MCF-7 cells. In words: phospho-AKT (S473) ELISA in MCF-7 cells. It is filed as cell-based. To be noted: Homo sapiens, MCF7, 24h treatment, read-out: EC50 inhibition of phosphorylation of AKT. The procedure: as §1
A short description of data set [6]: In vitro proliferation assay (CellTiter-Glo), normal cell lines. It is filed as cell-based. Particulars: human, normal cell lines (4 of the 6 tested; lines not named); 4 of the 6 normal cell lines tested; read-out: cytotoxicity EC50, normal cell lines. The procedure:
MCF-7, T47D, NCI-H460, HCT116, LNCaP, A431, PC3, PANC-1, A549, HT29M, SKOV-3, Du145, HMEC-1, Hs888Lu, Hela, MDA-MB-231 and SW480 cells were obtained from American Type Culture Collection (ATCC). A2780, PNT2, U251MG, HFFF2 and Fr2 cells were obtained from Public Health England European Collection of Authenticated Cell Cultures (Phe ECACC). InMyoFib and NHLF cells were acquired from Lonza. Cells were then incubated with increasing concentration of inhibitor (1 nM to 100 µM) for 72 h at 37 °C. Cell viability was determined using the CellTiter-Glo Luminescent Cell Viability Assay (Promega). IC50 values were derived as previously stated.

Data set [7] is described as follows: In vitro microsomal stability, human. To be noted: pH 7.4; human liver microsomes; read-out: human LM CLint. It is filed as in vitro ADME. The procedure:
as §2

The target of the next data set is T1, AKT2 (Homo sapiens, UniProt P31751).
T1 construct: purchased Signal Chem
In words: AKT2 biochemical kinase assay (FP iMAP). Particulars: read-out: AKT IC50, AKT2. The procedure: (§3) Biochemical analysis was performed using kinases obtained from Millipore (AKT1, ∆AKT1, ∆AKT2, ∆AKT3) and Signal Chem (AKT2 and AKT3). […] (Molecular Devices) against the three isoforms of AKT and their PH domain null mutants. Compounds were dissolved in DMSO prior to screening at 14 point titration series in the range (50 µM–50 pM). Fluorescence polarisation was measured using a Biotek Synergy 4 Hybrid microplate reader. Percentage inhibition of kinase activity was calculated and IC50 values derived using non-linear regression on GraphPad Prism. Competition of ALM301 with ATP was determined using AKT1 under increasing ATP concentrations up to 1000 µM.

For the next data set, the target named is T2, AKT3 (Homo sapiens, UniProt Q9Y243).
T2 construct: purchased Signal Chem
In words: AKT3 biochemical kinase assay (FP iMAP). Particulars: read-out: AKT IC50, AKT3. The procedure:
as §3

The target of a further data set is T3, AKT1 (Homo sapiens, UniProt P31749).
T3 construct: purchased Millipore
In words: AKT1 biochemical kinase assay (FP iMAP). To be noted: for IC50: read-out: AKT IC50, AKT1. The procedure: as §3

In the next data set the test system is MCF-7 xenografts. Kind of data set: Efficacy study in MCF-7 breast cancer xenograft model. Particulars: MCF-7 xenograft, tamoxifen alone 5 mg/kg q.d. p.o. It is filed as in vivo. The procedure:
For efficacy in MCF-7 xenografts, 150 SCID female mice aged 6–8 weeks and weighing approximately 18–22 g were implanted with 1 × 10^7 MCF-7 tumour cells (ATCC) subcutaneously in the right flank. […] Once mean tumour size reached approximately 150 mm^3, mice were randomised to either control or treatment groups (n = 10/group) using a randomised block approach. Groups sizes were devised based on past experience of the provider. […] Tumour size was measured twice weekly in two dimensions using a caliper, and the volume expressed in mm^3 using the formula: V = 0.5 (a x b^2), where a and b are the long and short diameters of the tumour, respectively.

Another data set deals with MCF-7 cells. To be noted: ALM301 in combination with Tamoxifen. The procedure: A synergy screen, using ALM301 and combination partners in a matrix design, was conducted to identify compounds which are synergistic in combination with ALM301. Synergy was calculated using the median concentration effect method using Calcusyn software as previously described.
Where [8] appears, read: PBS buffer, pH 7.4, aqueous buffer, kinetic from dmso stock.

T3 sequence (P31749 whole entry): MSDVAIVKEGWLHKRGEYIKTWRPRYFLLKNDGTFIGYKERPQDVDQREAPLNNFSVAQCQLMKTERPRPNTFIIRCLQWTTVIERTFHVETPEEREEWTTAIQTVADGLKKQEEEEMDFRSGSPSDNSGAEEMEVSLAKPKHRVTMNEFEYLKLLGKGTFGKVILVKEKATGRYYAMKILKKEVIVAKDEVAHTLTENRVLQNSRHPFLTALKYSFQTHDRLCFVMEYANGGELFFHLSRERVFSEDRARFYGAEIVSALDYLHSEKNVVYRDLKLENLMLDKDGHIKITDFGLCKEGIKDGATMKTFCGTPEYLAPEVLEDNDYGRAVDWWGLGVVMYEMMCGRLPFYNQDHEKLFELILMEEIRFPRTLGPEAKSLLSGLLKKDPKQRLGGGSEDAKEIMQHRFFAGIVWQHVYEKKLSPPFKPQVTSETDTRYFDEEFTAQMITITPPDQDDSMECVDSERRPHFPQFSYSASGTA
T1 sequence (P31751 whole entry): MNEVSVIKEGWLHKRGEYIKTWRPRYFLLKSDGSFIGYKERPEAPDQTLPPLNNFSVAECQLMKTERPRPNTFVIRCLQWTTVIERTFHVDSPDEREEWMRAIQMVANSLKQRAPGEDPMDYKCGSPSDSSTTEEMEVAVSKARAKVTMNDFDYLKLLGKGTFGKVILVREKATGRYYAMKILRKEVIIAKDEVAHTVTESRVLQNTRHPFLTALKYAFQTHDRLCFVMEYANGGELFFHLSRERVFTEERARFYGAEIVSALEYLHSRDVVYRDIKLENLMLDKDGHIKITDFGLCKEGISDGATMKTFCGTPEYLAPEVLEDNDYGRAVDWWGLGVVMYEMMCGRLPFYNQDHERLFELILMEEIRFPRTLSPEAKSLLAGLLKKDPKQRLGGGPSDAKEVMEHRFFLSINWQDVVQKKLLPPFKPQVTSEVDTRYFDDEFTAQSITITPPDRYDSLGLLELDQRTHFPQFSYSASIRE
T2 sequence (Q9Y243 whole entry): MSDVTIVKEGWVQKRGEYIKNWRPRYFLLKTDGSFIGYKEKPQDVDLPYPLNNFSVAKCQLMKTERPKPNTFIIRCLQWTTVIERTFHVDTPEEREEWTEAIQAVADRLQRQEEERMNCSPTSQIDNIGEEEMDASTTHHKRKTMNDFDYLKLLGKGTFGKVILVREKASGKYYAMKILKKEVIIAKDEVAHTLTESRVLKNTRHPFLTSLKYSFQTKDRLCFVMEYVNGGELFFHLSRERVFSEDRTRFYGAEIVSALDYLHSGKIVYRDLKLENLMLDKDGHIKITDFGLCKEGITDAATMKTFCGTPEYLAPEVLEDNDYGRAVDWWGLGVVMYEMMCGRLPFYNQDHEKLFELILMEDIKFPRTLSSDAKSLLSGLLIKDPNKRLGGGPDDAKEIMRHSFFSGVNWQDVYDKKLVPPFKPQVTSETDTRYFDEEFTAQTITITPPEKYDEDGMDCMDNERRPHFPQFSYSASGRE
CYP 2C9, sequence (P11712 whole entry): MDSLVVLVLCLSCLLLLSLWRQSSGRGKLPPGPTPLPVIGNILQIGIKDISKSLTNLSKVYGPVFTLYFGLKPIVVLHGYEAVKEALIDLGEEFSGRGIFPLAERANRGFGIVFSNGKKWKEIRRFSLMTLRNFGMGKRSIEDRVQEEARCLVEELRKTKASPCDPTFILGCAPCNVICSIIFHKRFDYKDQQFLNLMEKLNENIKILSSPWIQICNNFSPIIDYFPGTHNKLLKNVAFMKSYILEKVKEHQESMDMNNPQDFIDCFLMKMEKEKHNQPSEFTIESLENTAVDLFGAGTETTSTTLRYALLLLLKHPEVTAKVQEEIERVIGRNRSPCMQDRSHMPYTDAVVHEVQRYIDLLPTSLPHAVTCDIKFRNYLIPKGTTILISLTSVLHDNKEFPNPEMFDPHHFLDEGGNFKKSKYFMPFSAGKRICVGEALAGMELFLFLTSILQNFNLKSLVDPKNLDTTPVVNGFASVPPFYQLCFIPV

What is called IC50 is the concentration needed to halve the response being measured. Usually Vd stands for the apparent volume that relates the amount in the body to the concentration in plasma or blood. Usually kinetic solubility stands for solubility judged after dilution from a stock solution rather than from solid. As usually defined, the logD is the decadic logarithm of the distribution of all forms, ionised or not, between an organic phase and buffer at a given pH. A lower logD goes with lower lipophilicity. In general, EC50 refers to the concentration needed to bring the measured effect to its halfway point. For the molecule `NC1(c2ccc(-c3nc4ccn5c(=O)[nH]nc5c4cc3-c3ccccc3)cc2)CCC1` [MK-2206, reference compound], the concentration for half-maximal inhibition (IC50) on CYP 2C9 was determined as 19000 nM; in data set [1], 120 nM. Also, in data set [2] (Sprague-Dawley, rat, plasma, iv, 1 mg/kg i.v., read-out: Rat PK CL), the clearance was found to be 24 mL/min/kg. For the same molecule, the Vd in data set [2] (Sprague-Dawley, rat, plasma, iv, 1 mg/kg i.v., read-out: Rat PK Vd) amounted to 12 L/kg. The “Rat PK F” value in [2] (1 mg/kg i.v. and 5 mg/kg p.o., AUC 0-∞) was 12%. For the same molecule, the “pAKT^S473 in tumours” value in [3] is recorded as “incomplete inhibition”. In addition, the kinetic solubility in “Kinetic solubility assay” (setting [8]) was determined as 190 µM. Moreover, the logD at 4 h in the data set “LogD7.4 assay” turned out to be 2.4. Also, the microsomal CLint at 1 µM in data set [4] amounted to 13 µL/min/mg; in data set [7], 20 µL/min/mg. Moreover, the EC50 in data set [5] stood at 2550 nM. Also, the EC50 at 72 h in data set [6] is less than 20000 nM.
On to `NC1(c2ccc(-c3nc4c(cc3-c3ccccc3)NC(=O)CO4)cc2)CCC1` [compound 1], for which the IC50 stood at 3000 nM in data set [1], 3300 nM at AKT2, 6100 nM on AKT3 and 2500 nM on AKT1. Further, the solubility (kinetic) in the data set “Kinetic solubility assay” (setting [8]) was found to be 206 µM. The “AKT1 ligand efficiency (LE)” value at AKT1 amounted to 0.28.
In the case of `CN1C(=O)COc2nc(-c3ccc(C4(N)CCC4)cc3)c(-c3ccccc3)cc21` [compound 2], the IC50 in [1] is 100 nM; at AKT2, 400 nM; on AKT3, 5600 nM; on AKT1, 100 nM. For the same molecule, the “potency improvement in pGSK3β decrease compared with des-N-methyl analogue 1” value in data set [1] (PC3 prostate cancer cells) was “ca. 30 fold”. For the same molecule, the solubility (kinetic) is more than 190 µM in “Kinetic solubility assay” (setting [8]) and 191 µM in “Kinetic solubility assay”. For the same molecule, the “AKT1 ligand efficiency (LE)” value on AKT1 is 0.34.
The molecule `CC/C(=C(\c1ccccc1)c1ccc(OCCN(C)C)cc1)c1ccccc1` [tamoxifen] showed a tumour regression with MCF-7 xenografts of 24%. In the data set with MCF-7 cells, the “combination effect at ED50” value was “Synergy”, the “combination effect at ED75” value is “Synergy” and the “combination effect at ED90” value is on record as “Strong Synergy”.
